Test results reported in patent US8247170B2, “Detection of penicillin tolerance in Group B Streptococcus: single nucleotide polymorphisms in penicillin binding protein 4” (priority 2008, dated 2012).

Test system: GBS laboratory strains
Assay: MBC90:MIC90 ratio method of determining antibiotic tolerance
Type: cell-based, Group B Streptococcus
Conditions: for MBC / MIC / MIC90: Streptococcus; for MBC: 24 h, ≧90% non-viable cells, plate counts after 24 h antibiotic; for MIC: ≧90% growth-inhibited, OD600; for MIC90: for GBS, as stated under culture conditions
Experimental: The inventors ascertained the incidence of antibiotic tolerance in GBS clinical isolates collected from cervicovaginal-rectal swabs, by investigating cell wall inhibitors used to eliminate GBS colonization in pregnant women before delivery as stated by the CDC guidelines. A ratio of the minimum bactericidal concentration (MBC) over minimum inhibitory concentration (MIC) after 24 h of antibiotic incubation or by determining quantitative kill curves has been used to define antibiotic tolerance previously.
The MBC:MIC ratio was calculated for laboratory strains using three β-lactam antibiotics (Penicillin G, Ampicillin, and Cefazolin) and a glycopeptide antibiotic (Vancomycin) (Table 1). Early-log phase cultures of GBS were treated with the individual antibiotics at a concentration of 0.25 to 512×MIC90. The optical density (OD600) of antibiotic treated cultures was used to determine the MIC90 after 24 h and a cell count was used to determine their MBC90. Susceptible, tolerant and intermediate strains were defined by their MBC:MIC ratio of ≦2:1, ≧32:1 and 4:1-16:1 respectively. […] The ratios characterized GBS strains A909 and 2603V/R as Susceptible, O90R as Tolerant, and NEM316 as Intermediate to Penicillin, Ampicillin, and Cefazolin. All four strains were susceptible to Vancomycin.
(I) Bacterial Strains and Culture Conditions. GBS strains A909 (serotype IA), 515 (serotype IA), NEM316 (serotype III), COHI (serotype III), 2603V/R (serotype V) and O90R (non-typable) were used in this study. E. coli Top10 cells were used for the recombination experiments. GBS was cultured in Todd Hewitt broth (THB) or Tryptic Soy 5% sheep blood (TS) media and E. coli in Luria-broth (LB) medium or agar. Antibiotics were used at the following concentrations: for GBS—penicillin G (MIC90 0.06 μg ml^−1), ampicillin (MIC90 0.12 μg ml^−1), vancomycin (MIC90 2 μg ml^−1), cefazolin (MIC90 1 μg ml^−1) and chloramphenicol (5 μg ml^−1); for E. coli—ampicillin (50 μg ml^−1) and chloramphenicol (5 μg ml^−1). Both GBS and E. coli cultures were grown at 37° C. (II) Tolerance Using the MBC:MIC Ratio Method. Three GBS laboratory strains (i.e., A909, NEM316, and O90R) were cultured overnight for 18 h at 37° C. in THB. Subcultures in THB were subsequently grown to exponential phase (OD600˜0.3; i.e. 5×10^5 cfu/ml) at 37° C. Cell cultures were then exposed to different concentrations of antibiotics (Penicillin G, Ampicillin, Cefozolin or Vancomycin). […] Cell cultures were dispersed every 18 h before OD600 was measured to determine the lowest concentration of antibiotic with 90% growth inhibition (MIC90). Antibiotic treated cells (8 μl) from each well were re-suspended into PBS (100 μl) and plated (54 μl) on TS agar plates and allowed to grow for an additional 24 h at 37° C. Cell count was performed to determine the lowest concentration of antibiotic with 90% killing of original inoculums (MBC90). (III) Penicillin Killing and Regrowth Tolerance Assay by Microbroth Dilution. Three GBS laboratory strains (i.e., A909, NEM316, and O90R) were cultured overnight for 18 h at 37° C. in THB. Subcultures in THB were subsequently grown to exponential phase (OD600˜0.3) at 37° C. Cell cultures were then exposed to different concentrations of Penicillin G (Sigma, St. Louis, Mo.). […] Cell cultures were dispersed. A 1:20 dilution of cells was re-plated into new wells containing fresh THB with 500 U Penase (to degrade residual penicillin). Cell cultures were allowed to re-grow for an additional 24 h at 37° C. before the OD600 was measured. (IV) Measuring Cell Viability by Determining ATP Concentration. GBS strains were cultured for 18 h at 37° C. in THB. These cells were inoculated into fresh THB and subsequently allowed to grow to exponential phase (OD600 0.25-0.3) at 37° C. One ml of each culture was centrifuged at 5,000×g for 4 min. The cell pellet was re-suspended in ATP-free water. […]

| Structure (SMILES) | Ratio (MBC90:MIC90) (GBS strain 2603V/R) | Ratio (MBC90:MIC90) (GBS strain A909) | Ratio (MBC90:MIC90) (GBS strain NEM316) | Ratio (MBC90:MIC90) (GBS strain O90R) | MBC (GBS strain 2603V/R) | MBC (GBS strain A909) | MBC (GBS strain NEM316) | MBC (GBS strain O90R) | MIC (GBS strain 2603V/R) | MIC (GBS strain A909) | MIC (GBS strain NEM316) | MIC (GBS strain O90R) | MIC90 |
| --- | --- | --- | --- | --- | --- | --- | --- | --- | --- | --- | --- | --- | --- |
| Cc1nnc(SCC2=C(C(=O)O)N3C(=O)[C@@H](NC(=O)Cn4cnnn4)[C@H]3SC2)s1 [Cefazolin] | 2 | 1 | 16 | 32 | 0.39 µg/mL | 0.19 µg/mL | 3.12 µg/mL | 12.5 µg/mL | 0.19 µg/mL | 0.19 µg/mL | 0.19 µg/mL | 0.39 µg/mL | 1 µg/mL |
| CN[C@H](CC(C)C)C(=O)N[C@H]1C(=O)N[C@@H](CC(N)=O)C(=O)N[C@H]2C(=O)N[C@H]3C(=O)N[C@H](C(=O)N[C@H](C(=O)O)c4cc(O)cc(O)c4-c4cc3ccc4O)[C@H](O)c3ccc(c(Cl)c3)Oc3cc2cc(c3O[C@@H]2O[C@H](CO)[C@@H](O)[C@H](O)[C@H]2O[C@H]2C[C@](C)(N)[C@H](O)[C@H](C)O2)Oc2ccc(cc2Cl)[C@H]1O [Vancomycin] | 1 | 1 | 1 | 1 | 4 µg/mL | 4 µg/mL | 4 µg/mL | 4 µg/mL | 4 µg/mL | 4 µg/mL | 4 µg/mL | 4 µg/mL | 2 µg/mL |
| CC1(C)S[C@@H]2[C@H](NC(=O)[C@H](N)c3ccccc3)C(=O)N2[C@H]1C(=O)O [Ampicillin] | 1 | 1 | 4 | – | 0.48 µg/mL | 0.48 µg/mL | 1.92 µg/mL | 15.4 µg/mL | 0.48 µg/mL | 0.48 µg/mL | 0.48 µg/mL | 0.96 µg/mL | 0.12 µg/mL |
